Test results from patent publication US8835433B2, “Optically pure diastereomers of 10-Propargyl-10-deazaaminopterin and methods of using same for the treatment of cancer” (Allos Therapeutics, Inc., priority 2010, dated 2014).

Columns and labels:
[1] = Pharmacokinetics in dog (PDX-T-07054-D); format: in vivo; settings: for clearance / Vd / half-life: dog, plasma, 0.7 mg/kg; for half-life: read-out: t1/2 term
Procedure: (§1) Bioanalytical methods were developed and validated for quantitation of the 2 pralatrexate C10 diastereomers (PDX-10a and PDX-10b) in human, rat and dog plasma and urine. The basic bioanalytical method involves extraction of PDX-10a and PDX-10b from the matrix utilizing C18 solid-phase extraction (SPE) cartridges followed by derivatization (methylation with acetyl chloride) of the diastereomers for separation detection. The derivatized extracts are injected on a chiral high-performance liquid chromatography (HPLC) column for quantitation of each diastereomer by liquid chromatography-tandem mass spectrometry (LC/MS/MS). The lower limit of quantitation (LLOQ) for both diastereomers in plasma and urine matrices was 0.5 ng/mL. […]

[2] = Pharmacokinetics in human (PDX-008, noncompartmental); format: in vivo; settings: for Vd / clearance / half-life: human, plasma, intravenous; for half-life: read-out: t1/2 term
Procedure: Bioanalytical methods were developed and validated for quantitation of the 2 pralatrexate C10 diastereomers (PDX-10a and PDX-10b) in human, rat and dog plasma and urine. The basic bioanalytical method involves extraction of PDX-10a and PDX-10b from the matrix utilizing C18 solid-phase extraction (SPE) cartridges followed by derivatization (methylation with acetyl chloride) of the diastereomers for separation detection. The derivatized extracts are injected on a chiral high-performance liquid chromatography (HPLC) column for quantitation of each diastereomer by liquid chromatography-tandem mass spectrometry (LC/MS/MS). The lower limit of quantitation (LLOQ) for both diastereomers in plasma and urine matrices was 0.5 ng/mL.
In humans, PDX-10b clearance was approximately 50% lower for both renal clearance (CLren) and nonrenal clearance (CLnonren). The lower clearance and ˜2-fold lower volume of distribution at steady state (Vdss) of PDX-10b are likely responsible for the 2-fold higher plasma exposure of PDX-10b compared with PDX-10a that is observed in humans. However, the plasma concentration-time profiles for both diastereomers declined in parallel, and terminal elimination half-life (t1/2term) for both diastereomers was virtually identical. The biological cause for the observed stereoselectivity across species is unknown, but may be due to isomeric differences in plasma protein binding. Isomeric differences in tissue distribution and/or renal and hepatobiliary transport may contribute as well.

cancer cell lines = assay: In vitro cytotoxicity in additional solid and heme cancer cell lines; format: cell-based; settings: some / other cell lines (T-cell lymphoma, multiple myeloma, others); Example 5
Procedure: Additional cancer cell lines can be tested in accordance with the methods outlined in Example 3. Cancer cell lines for T-cell lymphoma, multiple myeloma, hematologic malignancies, head and neck cancer, cancer of the gastrointestinal tract, ovarian cancer, and osteosarcoma are tested with PDX-10a and PDX-10b.

[3] = Population pharmacokinetics in cancer patients after racemic PDX; settings: 3-compartment model, 154 cancer patients, IV racemic PDX
Procedure: Population (POP) pharmacokinetic (PK) parameters and effects of covariate factors (COV) for PDX-10a and PDX-10b after administration of racemic PDX in cancer patients were analyzed. POPPK data were pooled from 3 studies: 1) a phase 1 study in non-small lung cancer patients with intravenous (IV) doses of 150-325 mg/m^2, 2) a phase 1 study in advanced cancer patients with IV doses of 80-140 mg/m^2 plus a taxane, and 3) a phase 2 study in patients with relapsed or refractory PTCL at a dose of 30 mg/m^2/week IV. POP PK data for each diastereomer were analyzed using nonlinear mixed effects modeling with first-order conditional estimation. Model qualification included non-parametric bootstrap and predictive checks. Results: The POP PK database was comprised of 154 patients (94 males & 60 females, ages 21-85 years, weights 42.9-158 kg), contributing 1176 PDX-10a and 1173 PDX-10b plasma concentrations.

[4] = test system: type II collagen arthritis; assay: Type II collagen arthritis rat model; format: in vivo; settings: female Lewis rats, 0.075, 0.05 or 0.025 mg/kg qd; some / other components/aspects of the arthritis; Example 8
Procedure: Female Lewis rats with 17-day developing type II collagen arthritis are treated once daily (qd), orally or intravenously, on days 0-16 of the study with saline vehicle (qd), with Methotrexate (MTX, 0.075, 0.05, or 0.025 mg/kg), or racemic PDX, PDX-10a and PDX-10b (0.075, 0.05, or 0.025 mg/kg). Animals are terminated on study day 17. Efficacy evaluation is based on ankle caliper measurements, expressed as area under the curve (AUC), and terminal hind paw weights, and histopathologic evaluation of ankles and knees.

[5] = Pharmacokinetics in rat (PDX-T-07034-R); format: in vivo; settings: plasma, 5 mg/kg; for half-life: read-out: t1/2 term
Procedure: as §1

[6] = both sexes, Day 1, 0.7 mg/kg, range of the mean for males and females and for PDX-10a and PDX-10b, read-out: CLtot
[7] = both sexes, Day 1, 0.7 mg/kg, range of the mean for males and females and for PDX-10a and PDX-10b, read-out: Vdss
[8] = both sexes, Day 1, 0.7 mg/kg, range of the mean for males and females and for PDX-10a and PDX-10b
[9] = both sexes, Day 1, calculated using average BW 8.5 kg, read-out: Vdss relative to BW
[10] = both sexes, Day 281, 0.7 mg/kg, range of the mean for males and females and for PDX-10a and PDX-10b, read-out: CLtot
[11] = both sexes, Day 281, 0.7 mg/kg, range of the mean for males and females and for PDX-10a and PDX-10b, read-out: Vdss
[12] = both sexes, Day 281, 0.7 mg/kg, range of the mean for males and females and for PDX-10a and PDX-10b
[13] = Day 1, calculated using average BW 8.5 kg, read-out: CLtot relative to BW
[14] = both sexes, 0.81 mg/kg, C1D1, calculated using average BW 85 kg, read-out: Vdss relative to BW
[15] = both sexes, 30 mg/m2, human, C1D1, 30 mg/m^2, range of the mean for males and females and for PDX-10a and PDX-10b, read-out: CLtot
[16] = both sexes, 30 mg/m2, human, C1D1, 30 mg/m^2, range of the mean for males and females and for PDX-10a and PDX-10b, read-out: Vdss
[17] = both sexes, 30 mg/m2, human, C1D1, 30 mg/m^2, range of the mean for males and females and for PDX-10a and PDX-10b
[18] = both sexes, 30 mg/m2, human, C1D6 or C2D6, 30 mg/m^2, range of the mean for males and females and for PDX-10a and PDX-10b, read-out: CLtot
[19] = both sexes, 30 mg/m2, human, C1D6 or C2D6, 30 mg/m^2, range of the mean for males and females and for PDX-10a and PDX-10b, read-out: Vdss
[20] = both sexes, 30 mg/m2, human, C1D6 or C2D6, 30 mg/m^2, range of the mean for males and females and for PDX-10a and PDX-10b
[21] = 0.81 mg/kg, C1D1, calculated using average BW 85 kg, read-out: CLtot relative to BW
[22] = both sexes, Day 1, 5 mg/kg, range of the mean for males and females and for PDX-10a and PDX-10b, read-out: CLtot
[23] = both sexes, Day 1, 5 mg/kg, range of the mean for males and females and for PDX-10a and PDX-10b, read-out: Vdss
[24] = both sexes, Day 1, 5 mg/kg, range of the mean for males and females and for PDX-10a and PDX-10b
[25] = both sexes, Day 1, calculated using average BW 0.35 kg, read-out: Vdss relative to BW
[26] = both sexes, Day 85, 5 mg/kg, range of the mean for males and females and for PDX-10a and PDX-10b, read-out: CLtot
[27] = both sexes, Day 85, 5 mg/kg, range of the mean for males and females and for PDX-10a and PDX-10b, read-out: Vdss
[28] = both sexes, Day 85, 5 mg/kg, range of the mean for males and females and for PDX-10a and PDX-10b
[29] = Day 1, calculated using average BW 0.35 kg, read-out: CLtot relative to BW

**Q.** For `C#CC[C@@H](Cc1cnc2nc(N)nc(N)c2n1)c1ccc(C(=O)N[C@@H](CCC(=O)O)C(=O)O)cc1` (single isomer, unassigned) [PDX-10a], which clearance [1, 6] is on record?
**A.** 34 to 81 mL/min

**Q.** And the Vd [1, 7]?
**A.** 8 to 16 L

**Q.** And the half-life [1, 8]?
**A.** 4.4 to 4.9 h

**Q.** And the Vd [1, 9]?
**A.** 0.9 to 1.9 L/kg

**Q.** And the clearance [1, 10]?
**A.** 58 to 95 mL/min

**Q.** What about the Vd [1, 11] of the same compound?
**A.** 15 to 24 L

**Q.** And the half-life [1, 12]?
**A.** 4.7 to 5.5 h

**Q.** And the clearance [1, 13]?
**A.** 4 to 10 mL/min/kg

**Q.** And the Vd [2, 14]?
**A.** 0.4 to 1.2 L/kg

**Q.** What about the clearance [2, 15] of the same compound?
**A.** 191 to 417 mL/min

**Q.** And the Vd [2, 16]?
**A.** 37 to 105 L

**Q.** What about the half-life [2, 17] of the same compound?
**A.** 12 to 18 h

**Q.** What about the clearance [2, 18] of the same compound?
**A.** 227 to 495 mL/min

**Q.** What about the Vd [2, 19] of the same compound?
**A.** 48 to 162 L

**Q.** What about the half-life [2, 20] of the same compound?
**A.** 11 to 16 h

**Q.** And the clearance [2, 21]?
**A.** 2 to 5 mL/min/kg

**Q.** What about the “cytotoxic activity relative to racemate and other diastereomer” value (cancer cell lines) of the same compound?
**A.** increased activity relative to racemic PDX and/or PDX-10b

**Q.** And the “1st inter-CMT CL, POP PK parameter estimate” value [3]?
**A.** 6.97 L/h

**Q.** And the “2nd inter-CMT CL, POP PK parameter estimate” value [3]?
**A.** 1.43 L/h

**Q.** What about the “clearance (CL), POP PK parameter estimate” value [3] of the same compound?
**A.** 35.0 L/h

**Q.** What about the “volume for CMT 1, POP PK parameter estimate” value [3] of the same compound?
**A.** 11.0 L

**Q.** And the “volume for CMT 2, POP PK parameter estimate” value [3]?
**A.** 9.71 L

**Q.** And the “volume for CMT 3, POP PK parameter estimate” value [3]?
**A.** 50.6 L

**Q.** And the “antiarthritic activity relative to racemate and other diastereomer” value [4]?
**A.** increased activity relative to racemic PDX and/or PDX-10b

**Q.** What about the clearance [5, 22] of the same compound?
**A.** 2.9 to 4 mL/min

**Q.** What about the Vd [5, 23] of the same compound?
**A.** 0.07 to 0.89 L

**Q.** What about the half-life [5, 24] of the same compound?
**A.** 1 to 20 h

**Q.** And the Vd [5, 25]?
**A.** 0.2 to 2.5 L/kg

**Q.** And the clearance [5, 26]?
**A.** 3.4 to 3.9 mL/min

**Q.** And the Vd [5, 27]?
**A.** 0.15 to 0.18 L

**Q.** And the half-life [5, 28]?
**A.** 1 to 6 h

**Q.** And the clearance [5, 29]?
**A.** ~10 mL/min/kg

**Q.** With `C#CC[C@H](Cc1cnc2nc(N)nc(N)c2n1)c1ccc(C(=O)N[C@@H](CCC(=O)O)C(=O)O)cc1` (single isomer, unassigned) [PDX-10b] as the compound, how does the clearance [1, 6] read?
**A.** 34 to 81 mL/min

**Q.** And the Vd [1, 7]?
**A.** 8 to 16 L

**Q.** What about the half-life [1, 8] of the same compound?
**A.** 4.4 to 4.9 h

**Q.** And the Vd [1, 9]?
**A.** 0.9 to 1.9 L/kg

**Q.** And the clearance [1, 10]?
**A.** 58 to 95 mL/min

**Q.** And the Vd [1, 11]?
**A.** 15 to 24 L

**Q.** What about the half-life [1, 12] of the same compound?
**A.** 4.7 to 5.5 h

**Q.** What about the clearance [1, 13] of the same compound?
**A.** 4 to 10 mL/min/kg

**Q.** What about the “higher clearance of PDX-10b compared with PDX-10a” value ([1]; dogs) of the same compound?
**A.** 2 fold

**Q.** And the Vd [2, 14]?
**A.** 0.4 to 1.2 L/kg

**Q.** What about the clearance [2, 15] of the same compound?
**A.** 191 to 417 mL/min

**Q.** And the Vd [2, 16]?
**A.** 37 to 105 L

**Q.** And the half-life [2, 17]?
**A.** 12 to 18 h

**Q.** And the clearance [2, 18]?
**A.** 227 to 495 mL/min

**Q.** What about the Vd [2, 19] of the same compound?
**A.** 48 to 162 L

**Q.** And the half-life [2, 20]?
**A.** 11 to 16 h

**Q.** What about the clearance [2, 21] of the same compound?
**A.** 2 to 5 mL/min/kg

**Q.** What about the “higher plasma exposure compared with PDX-10a” value ([2]; humans) of the same compound?
**A.** 2 fold

**Q.** What about the “lower volume of distribution at steady state (Vdss) compared with PDX-10a” value ([2]; humans) of the same compound?
**A.** ~2 fold

**Q.** And the “nonrenal clearance (CLnonren) lower compared with PDX-10a” value ([2]; humans)?
**A.** approximately 50%

**Q.** And the “renal clearance (CLren) lower compared with PDX-10a” value ([2]; humans)?
**A.** approximately 50%

**Q.** What about the “cytotoxic activity relative to racemate and other diastereomer” value (cancer cell lines) of the same compound?
**A.** increased activity relative to racemic PDX and/or PDX-10a

**Q.** What about the “1st inter-CMT CL, POP PK parameter estimate” value [3] of the same compound?
**A.** 5.53 L/h

**Q.** What about the “2nd inter-CMT CL, POP PK parameter estimate” value [3] of the same compound?
**A.** 0.601 L/h

**Q.** What about the “clearance (CL), POP PK parameter estimate” value [3] of the same compound?
**A.** 17.2 L/h

**Q.** What about the “volume for CMT 1, POP PK parameter estimate” value [3] of the same compound?
**A.** 8.89 L

**Q.** What about the “volume for CMT 2, POP PK parameter estimate” value [3] of the same compound?
**A.** 6.79 L

**Q.** What about the “volume for CMT 3, POP PK parameter estimate” value [3] of the same compound?
**A.** 12.65 L

**Q.** And the “antiarthritic activity relative to racemate and other diastereomer” value [4]?
**A.** increased activity relative to racemic PDX and/or PDX-10a

**Q.** What about the clearance [5, 22] of the same compound?
**A.** 2.9 to 4 mL/min

**Q.** And the Vd [5, 23]?
**A.** 0.07 to 0.89 L

**Q.** What about the half-life [5, 24] of the same compound?
**A.** 1 to 20 h

**Q.** What about the Vd [5, 25] of the same compound?
**A.** 0.2 to 2.5 L/kg

**Q.** And the clearance [5, 26]?
**A.** 3.4 to 3.9 mL/min

**Q.** And the Vd [5, 27]?
**A.** 0.15 to 0.18 L

**Q.** And the half-life [5, 28]?
**A.** 1 to 6 h

**Q.** And the clearance [5, 29]?
**A.** ~10 mL/min/kg
